# “And” between values parts separate entries of the source, which are not always exact repeats. Equal entries are not always repeated. Where two headings read alike, the source gives them in different places. Marks after values point to notes of the source that are not given here.
# Experiments:
# Caenorhabditis elegans = tested on: Caenorhabditis elegans; design: method as in PMID 19277288; settings: C. elegans, cited from earlier work
# [1] = tested on: induced hepatocarcinogenesis in rats; design: method as in PMID 2387027; dose or concentration left out as unconfirmed; settings: orally in a diet; cited from earlier work
# [2] = tested on: hamster ovary cell line (CHO); settings: cited from earlier work
# Drosophila melanogaster [3] = assay: Antigenotoxicity in SMART, combined treatment with H2O2; format: in vivo; settings: for Large single spots > 2 cells; m = 5: mutation rate (number of spots) / Small single spots 1–2 cells; m = 2: diagnosis / Small single spots 1–2 cells; m = 2: mutation rate (number of spots) / Total spots m = 2: diagnosis / Total spots m = 2: mutation rate (number of spots) / Twin spots m = 5: mutation rate (number of spots): combined with 0.12 M H2O2; as to Small single spots 1–2 cells; m = 2: diagnosis: key: + (positive); − (negative); as to Total spots m = 2: diagnosis: key: + (positive); − (negative)
# Experimental: (§1) The genotoxic and antigenotoxic activity of lyophilized leaves of B. carinata and sinigrin were evaluated by the Drosophila Somatic Mutation and Recombination Test (SMART). Drosophila is a holometabolous animal which in vivo experiments permit to make analogies with humans due to the high percentage of homologue genes in common with human. […] Both characteristics make this test an optimal protocol in order to test molecules and complex mixtures with health benefices for humans. Two different D. melanogaster strains carrying visible wing genetic markers on the left arm of chromosome 3 were used: the flare (flr) strain flr^3/ln (3LR) TM3, Bd^s and the multiple wing-hair (mwh) strain mwh/mwh. These markers were selected due to their position in the Drosophila genome, covering a wide portion of one of their four chromosomes. Specifically, they affect the wing imaginal disks which present more cells with a uniform growth during larvae development than other Drosophila imaginal disks. This fact makes possible to detect easily a high number of mutations, somatic recombinations and disjunctions produced in the Drosophila DNA during all treatment periods by wing microscopic observation. In this sense, these markers are present in other genetic background (strains) but crosses produce mutations with a basal mutation rate too high and disturbing hair anomalous pattems. The marker flare (flr^3, 3_38.3) is a recessive mutation which produces individual wing hairs that are malformed. The flr^3 allele is a zygotic recessive lethal, which is maintained in the strain over the balancer chromosome TM3 (TM3, Bd^S: Third Multiple 3, Beaded-Serrate). The marker multiple wing hairs (mwh, 3_0.3) is a recessive mutation that is viable in homozygous flies, producing multiple hairs per cell instead of the wild type single-hair trichome. Two types of crosses were used: the standard cross with flr^3/TM3, Bd^S females mated to mwh/mwh males and the reciprocal cross.
# (§2) Hybrid eggs from crossing optimally fertile flies were collected over an 8-h period. Emerged larvae, 72 ± 4 h later, were cleaned up from remaining feeding medium, using sterile distilled water, and subsequently were transferred into treatment vials. These vials contained tested conditions which consisted of 0.85 g of Drosophila Instant Medium (Formula 4–24, Carolina Biological Supply, Burlington, NC, USA) wetted with 4 mL of a mixture of distilled-sterile water and the appropriate concentration of lyophilized plant or the single compound sinigrin.
# (§3) Genotoxicity/antigenotoxicity tests were performed following the standard protocol. Antigenotoxicity tests were carried out by mixing the genotoxin hydrogen peroxide (H2O2, Sigma-Aldrich) with the plant or single compound in appropriate concentrations.
# (§4) The groups consisting of approximately 100 larvae each were: (i) negative control (distilled water); (ii) mutagenic positive control (H2O2 0.12 M); (iii) 3 vials with increasing concentrations of B. carinata (1.25, 2.5, and 5 mg·mL^−1); and (iv) 4 vials with increasing concentrations of sinigrin (0.6, 1.2, 2.4 and 4.8 mM). Sinigrin concentrations were chosen on the basis of the sinigrin content of the B. carinata sample used in this study.
# (§5) Larvae were fed on both treated and control mediums until pupation (about 48 h). After emergence, resulting adult flies were collected from the treatment vials, sacrificed under CO2 narcotization and stored in a 70% ethanol solution in sterile water.
# (§6) Transheterozygous wings (mwhflr^+/mwh^+ flr^3) were mounted and wing hair mutations (spots) were scored. Both dorsal and ventral surfaces of the wings containing 22,000 cells were screened under a photonic microscope (Nikon, Amsterdam, Netherlands) at 400× magnification for the occurrence of individual spots (mwh or flr phenotype) or twin spots (mwh clone adjacent to flr clone).
# Drosophila melanogaster [4] = assay: Toxicity in SMART: Drosophila adult survival after simple and combined (H2O2) treatment; format: in vivo; settings: for Survival, average: average over all assayed concentrations
# Experimental: Toxicity (T) was determined as percentage of survival adults with respect to 450 untreated 72 h old larvae from three independent experiments: T = (N° of emerging individuals in treatment/N° of emerging individuals in the negative control) × 100(1)
# Drosophila melanogaster [5] = tested on: Drosophila melanogaster
# Experimental: as §1, §2, §3, §4, §5, §6
# [6] = sinigrin 0.60 mM, simple treatment
# [7] = sinigrin 1.20 mM, simple treatment
# [8] = sinigrin 2.40 mM, simple treatment
# [9] = sinigrin 4.81 mM, simple treatment
smiles,measurement,setting,value
"C=CCC(=NOS(=O)(=O)O)S[C@@H]1O[C@H](CO)[C@@H](O)[C@H](O)[C@H]1O (stereo in doubt) [Sinigrin, sinigrin]",Non-toxic up to the concentration,Caenorhabditis elegans,≤ 80 g/L
same,LC50,Caenorhabditis elegans; with addition of myrosinase,500 µg/mL
same,Effect on induced hepatocarcinogenesis,[1],able to inhibit induced hepatocarcinogenesis
same,Chromosome aberrations / sister chromatid exchanges,[2]; at concentrations of 2 mg·mL^−1,induced chromosome aberrations but not sister chromatid exchanges
same,Genotoxicity and cytotoxicity,[2],neither genotoxic nor cytotoxic
same,Large single spots > 2 cells; m = 5: mutation rate (number of spots),Drosophila melanogaster [3]; sinigrin 0.60 mM,0 spots per wing
same,Small single spots 1–2 cells; m = 2: diagnosis,Drosophila melanogaster [3]; sinigrin 0.60 mM,−
same,Small single spots 1–2 cells; m = 2: mutation rate (number of spots),Drosophila melanogaster [3]; sinigrin 0.60 mM,0.19 (6) spots per wing
same,Total spots m = 2: diagnosis,Drosophila melanogaster [3]; sinigrin 0.60 mM,−
same,Total spots m = 2: mutation rate (number of spots),Drosophila melanogaster [3]; sinigrin 0.60 mM,0.19 (6) spots per wing
same,Twin spots m = 5: mutation rate (number of spots),Drosophila melanogaster [3]; sinigrin 0.60 mM,0 spots per wing
same,Large single spots > 2 cells; m = 5: mutation rate (number of spots),Drosophila melanogaster [3]; sinigrin 1.20 mM,0 spots per wing
same,Small single spots 1–2 cells; m = 2: diagnosis,Drosophila melanogaster [3]; sinigrin 1.20 mM,−
same,Small single spots 1–2 cells; m = 2: mutation rate (number of spots),Drosophila melanogaster [3]; sinigrin 1.20 mM,0.20 (4) spots per wing
same,Total spots m = 2: diagnosis,Drosophila melanogaster [3]; sinigrin 1.20 mM,−
same,Total spots m = 2: mutation rate (number of spots),Drosophila melanogaster [3]; sinigrin 1.20 mM,0.20 (4) spots per wing
same,Twin spots m = 5: mutation rate (number of spots),Drosophila melanogaster [3]; sinigrin 1.20 mM,0 spots per wing
same,Large single spots > 2 cells; m = 5: mutation rate (number of spots),Drosophila melanogaster [3]; sinigrin 2.40 mM,0 spots per wing
same,Small single spots 1–2 cells; m = 2: diagnosis,Drosophila melanogaster [3]; sinigrin 2.40 mM,−
same,Total spots m = 2: diagnosis,Drosophila melanogaster [3]; sinigrin 2.40 mM,−
same,Twin spots m = 5: mutation rate (number of spots),Drosophila melanogaster [3]; sinigrin 2.40 mM,0 spots per wing
same,Percentage of inhibition of clone formation,"Drosophila melanogaster [3]; sinigrin 4.81 mM, against H2O2",84.61%
same,Large single spots > 2 cells; m = 5: mutation rate (number of spots),Drosophila melanogaster [3]; sinigrin 4.81 mM,0 spots per wing
same,Small single spots 1–2 cells; m = 2: diagnosis,Drosophila melanogaster [3]; sinigrin 4.81 mM,−
same,Small single spots 1–2 cells; m = 2: mutation rate (number of spots),Drosophila melanogaster [3]; sinigrin 4.81 mM,0.10 (1) spots per wing
same,Total spots m = 2: diagnosis,Drosophila melanogaster [3]; sinigrin 4.81 mM,−
same,Total spots m = 2: mutation rate (number of spots),Drosophila melanogaster [3]; sinigrin 4.81 mM,0.10 (1) spots per wing
same,Twin spots m = 5: mutation rate (number of spots),Drosophila melanogaster [3]; sinigrin 4.81 mM,0 spots per wing
same,"Survival, average",Drosophila melanogaster [4]; combined treatments with 0.12 M H2O2,38.11%
same,"Survival, average",Drosophila melanogaster [4]; simple treatments,68.27%
same,Survival,"Drosophila melanogaster [4]; sinigrin 0.60 mM, combined with 0.12 M H2O2",25.56 * %
same,Survival,"Drosophila melanogaster [4]; sinigrin 0.60 mM, combined with 0.12 M H2O2, listed as sinigrin",25.56%
same,Survival,Drosophila melanogaster [4]; [6],56.44 * %
same,Survival,"Drosophila melanogaster [4]; sinigrin 1.20 mM, combined with 0.12 M H2O2",19.33 * %
same,Survival,"Drosophila melanogaster [4]; sinigrin 1.20 mM, combined with 0.12 M H2O2, listed as sinigrin",19.33%
same,Survival,Drosophila melanogaster [4]; [7],78.22 * %
same,Survival,"Drosophila melanogaster [4]; sinigrin 1.20 mM, simple treatment, listed as sinigrin",78.22%
same,Survival,"Drosophila melanogaster [4]; sinigrin 2.40 mM, combined with 0.12 M H2O2",47.33 * %
same,Survival,Drosophila melanogaster [4]; [8],61.56 * %
same,Survival,"Drosophila melanogaster [4]; sinigrin 4.81 mM, combined with 0.12 M H2O2",60.22 * %
same,Survival,"Drosophila melanogaster [4]; sinigrin 4.81 mM, combined with 0.12 M H2O2, listed as sinigrin",60.22%
same,Survival,Drosophila melanogaster [4]; [9],76.89 * %
same,Reduction of survival,"Drosophila melanogaster [4]; survival average, combined (H2O2) against simple treatments",~ 30%
same,"Total mutation rate, average","Drosophila melanogaster [5]; average over all doses, simple treatment",0.15 spots per wing
same,Large single spots > 2 cells; m = 5: diagnosis,Drosophila melanogaster [5]; [6],−
same,Large single spots > 2 cells; m = 5: mutation rate (number of spots),Drosophila melanogaster [5]; [6],0.03 (1) spots per wing
same,Small single spots 1–2 cells; m = 2: diagnosis,Drosophila melanogaster [5]; [6],−
same,Small single spots 1–2 cells; m = 2: mutation rate (number of spots),Drosophila melanogaster [5]; [6],0.18 (7) spots per wing
same,Total spots m = 2: diagnosis,Drosophila melanogaster [5]; [6],−
same,Total spots m = 2: mutation rate (number of spots),Drosophila melanogaster [5]; [6],0.20 (8) spots per wing
same,Twin spots m = 5: mutation rate (number of spots),Drosophila melanogaster [5]; [6],0 spots per wing
same,Large single spots > 2 cells; m = 5: diagnosis,Drosophila melanogaster [5]; [7],−
same,Large single spots > 2 cells; m = 5: mutation rate (number of spots),Drosophila melanogaster [5]; [7],0.03 (1) spots per wing
same,Small single spots 1–2 cells; m = 2: diagnosis,Drosophila melanogaster [5]; [7],−
same,Small single spots 1–2 cells; m = 2: mutation rate (number of spots),Drosophila melanogaster [5]; [7],0.12 (4) spots per wing
same,Total spots m = 2: diagnosis,Drosophila melanogaster [5]; [7],−
same,Total spots m = 2: mutation rate (number of spots),Drosophila melanogaster [5]; [7],0.18 (6) spots per wing
same,Twin spots m = 5: diagnosis,Drosophila melanogaster [5]; [7],−
same,Twin spots m = 5: mutation rate (number of spots),Drosophila melanogaster [5]; [7],0.03 (1) spots per wing
same,Large single spots > 2 cells; m = 5: diagnosis,Drosophila melanogaster [5]; [8],−
same,Large single spots > 2 cells; m = 5: mutation rate (number of spots),Drosophila melanogaster [5]; [8],0.03 (1) spots per wing
same,Small single spots 1–2 cells; m = 2: diagnosis,Drosophila melanogaster [5]; [8],−
same,Small single spots 1–2 cells; m = 2: mutation rate (number of spots),Drosophila melanogaster [5]; [8],0.08 (3) spots per wing
same,Total spots m = 2: diagnosis,Drosophila melanogaster [5]; [8],−
same,Total spots m = 2: mutation rate (number of spots),Drosophila melanogaster [5]; [8],0.11 (4) spots per wing
same,Twin spots m = 5: mutation rate (number of spots),Drosophila melanogaster [5]; [8],0 spots per wing
same,Large single spots > 2 cells; m = 5: mutation rate (number of spots),Drosophila melanogaster [5]; [9],0 spots per wing
same,Small single spots 1–2 cells; m = 2: diagnosis,Drosophila melanogaster [5]; [9],−
same,Small single spots 1–2 cells; m = 2: mutation rate (number of spots),Drosophila melanogaster [5]; [9],0.14 (4) spots per wing
same,Total spots m = 2: diagnosis,Drosophila melanogaster [5]; [9],−
same,Total spots m = 2: mutation rate (number of spots),Drosophila melanogaster [5]; [9],0.14 (4) spots per wing
same,Twin spots m = 5: mutation rate (number of spots),Drosophila melanogaster [5]; [9],0 spots per wing
"C=CCN=C=S [AITC, allyl-ITCs, reference compound]",Lethal concentration value,Caenorhabditis elegans,0.04 g/L
same,Genotoxicity,[2]; at high cytotoxic doses,not genotoxic
"OO [H2O2, hydrogen peroxide, reference compound]",Survival,"Drosophila melanogaster [4]; H2O2 0.12 M, simple treatment, emerged adults vs H2O control",37.78% and 37.78 * %
same,Large single spots > 2 cells; m = 5: diagnosis,Drosophila melanogaster [5]; in vivo,−
same,Large single spots > 2 cells; m = 5: mutation rate (number of spots),Drosophila melanogaster [5]; in vivo,0.07 (11) spots per wing
same,Small single spots 1–2 cells; m = 2: diagnosis,Drosophila melanogaster [5]; in vivo,+
same,Small single spots 1–2 cells; m = 2: mutation rate (number of spots),Drosophila melanogaster [5]; in vivo,0.60 (94) spots per wing
same,Total spots m = 2: diagnosis,Drosophila melanogaster [5]; in vivo,+
same,Total spots m = 2: mutation rate (number of spots),Drosophila melanogaster [5]; in vivo,0.65 (109) spots per wing
same,Twin spots m = 5: diagnosis,Drosophila melanogaster [5]; in vivo,−
same,Twin spots m = 5: mutation rate (number of spots),Drosophila melanogaster [5]; in vivo,0.06 (4) spots per wing
